# Data as given in patent US20250041298A1, “CDK4 INHIBITOR FOR THE TREATMENT OF CANCER” (Pfizer Inc., priority 2021, published 2025).
# Where two headings read alike, the source gives them in different places.
# Experiments:
# [1] = Phase 1/1b clinical trial: plasma pharmacokinetics of PF-07220060; format: in vivo, human; settings: human, plasma; for Tmax / half-life / AUC / Cmax: po; for half-life: arithmetic mean
# Description: Oral PF-07220060 was administered with at least 8 oz (240 mL) of water on an empty stomach (except during the food effect evaluation on Day-7 in Part 1D). No food or liquids other than water was consumed for 2 hours before and 1 hour following each dose throughout the study for BID dosing. No food or liquids other than water was consumed for 2 hours before and 2 hours after each dose throughout the study for QD dosing.
# In the ongoing Phase 1/1b Study, as of Aug. 30, 2022, preliminary PK data for PF-07220060 as monotherapy (Part 1A) and in combination with endocrine therapy (Part 1B and Part 1C) was available from 60 participants with advanced solid tumors. PF-07220060 was administered orally as a single agent at doses ranging from 100 to 500 mg BID, and in combination with either letrozole or fulvestrant at 300 to 400 mg BID. Available plasma concentration-time data of PF-07220060 were analyzed using noncompartmental methods.
# Preliminary noncompartmental PK analysis was conducted based on available samples collected from participants in the Study. […] Table 4 presents the summary of PK parameters for PF-07220060 as monotherapy, and in combination with letrozole or fulvestrant.
# [2] = system: AR+ prostate carcinoma cell line (LNCaP) prostate cancer spheroids; assay: Multicellular tumor spheroid growth inhibition (SGI), LNCaP; format: cell-based, human
# Description: The purpose of this example was to evaluate the combination effect of PF-07220060 and endocrine therapy in multicellular tumor spheroid growth inhibition (SGI). To model the characteristics and cellular behavior of human tumors, the activity of PF-07220060 was evaluated in three dimensional MCTS models of HR+ breast cancer and AR+ prostate cancer following PF-07220060 treatment as a single agent and in combination with fulvestrant • 1) in HR+, HER2-T47D breast cancer spheroids. • 2) in HR+, HER2+BT474 breast cancer spheroids, • 3) in BT474 spheroids, and • 4) in AR+ prostate carcinoma cell line (LNCaP) prostate cancer spheroids. Spheroids were treated with increasing concentrations of 100, 300, or 1000 nM PF-07220060 and compared to palbociclib at the clinically relevant concentration of 30 nM.
smiles,measurement,setting,value
"CC(C)n1c(C(C)(C)O)nc2c(F)cc(-c3nc(N[C@@H]4CCOC[C@H]4O)ncc3Cl)cc21 [PF-07220060, 1,5-anhydro-3-({5-chloro-4-[4-fluoro-2-(2-hydroxypropan-2-yl)-1-(propan-2-yl)-1H-benzimidazol-6-yl]pyrimidin-2-yl}amino)-2,3-dideoxy-D-threo-pentitol]",Tmax,"[1]; 300 mg BID oral + letrozole (Part 1B), C1D1 post first dose, median, read-out: Tmax",3 h
same,half-life,"[1]; 300 mg BID oral + letrozole (Part 1B), C1D15",4.1 h
same,AUC,"[1]; 300 mg BID oral + letrozole (Part 1B), C1D15, geometric mean, read-out: AUCtau",10400 ng·h/mL
same,Cmax,"[1]; 300 mg BID oral + letrozole (Part 1B), C1D15 post multiple doses, geometric mean",1520 ng/mL
same,Tmax,"[1]; 300 mg BID oral + letrozole (Part 1B), C1D15 post multiple doses, median, read-out: Tmax",1 h
same,Cmax,"[1]; 300 mg, 300 mg BID oral monotherapy (Part 1A), C1D1 post first dose, geometric mean",741 ng/mL
same,AUC,"[1]; 300 mg, 300 mg BID oral monotherapy (Part 1A), C1D1 post first dose, geometric mean, read-out: AUC12",4560 ng·h/mL
same,Tmax,"[1]; 300 mg, 300 mg BID oral monotherapy (Part 1A), C1D1 post first dose, median, read-out: Tmax",3.8 h
same,AUC,"[1]; 300 mg, 300 mg BID oral monotherapy (Part 1A), C1D15, geometric mean, read-out: AUCtau",8100 ng·h/mL
same,Cmax,"[1]; 300 mg, 300 mg BID oral monotherapy (Part 1A), C1D15 post multiple doses, geometric mean",1170 ng/mL
same,Tmax,"[1]; 300 mg, 300 mg BID oral monotherapy (Part 1A), C1D15 post multiple doses, median, read-out: Tmax",2.1 h
same,Cmax,"[1]; 400 mg BID oral + fulvestrant (Part 1C), C1D1 post first dose, geometric mean",730 ng/mL
same,AUC,"[1]; 400 mg BID oral + fulvestrant (Part 1C), C1D1 post first dose, geometric mean, read-out: AUC12",4840 ng·h/mL
same,Tmax,"[1]; 400 mg BID oral + fulvestrant (Part 1C), C1D1 post first dose, median, read-out: Tmax",2.2 h
same,half-life,"[1]; 400 mg BID oral + fulvestrant (Part 1C), C1D15",6.6 h
same,Cmax,"[1]; 400 mg BID oral + letrozole (Part 1B), C1D1 post first dose, geometric mean",950 ng/mL
same,AUC,"[1]; 400 mg BID oral + letrozole (Part 1B), C1D1 post first dose, geometric mean, read-out: AUC12",7110 ng·h/mL
same,Tmax,"[1]; 400 mg BID oral + letrozole (Part 1B), C1D1 post first dose, median, read-out: Tmax",2.2 h
same,AUC,"[1]; 400 mg BID oral + letrozole (Part 1B), C1D15, geometric mean, read-out: AUCtau",11500 ng·h/mL
same,Cmax,"[1]; 400 mg BID oral + letrozole (Part 1B), C1D15 post multiple doses, geometric mean",1420 ng/mL
same,Tmax,"[1]; 400 mg BID oral + letrozole (Part 1B), C1D15 post multiple doses, median, read-out: Tmax",1.6 h
same,AUC,"[1]; 400 mg BID, 400 mg BID oral + fulvestrant (Part 1C), C1D15, geometric mean, read-out: AUCtau",9560 ng·h/mL
same,Cmax,"[1]; 400 mg BID, 400 mg BID oral + fulvestrant (Part 1C), C1D15 post multiple doses, geometric mean",1380 ng/mL
same,Tmax,"[1]; 400 mg BID, 400 mg BID oral + fulvestrant (Part 1C), C1D15 post multiple doses, median, read-out: Tmax",1.1 h
same,Cmax,"[1]; 400 mg, 400 mg BID oral monotherapy (Part 1A), C1D1 post first dose, geometric mean",766 ng/mL
same,AUC,"[1]; 400 mg, 400 mg BID oral monotherapy (Part 1A), C1D1 post first dose, geometric mean, read-out: AUC12",5110 ng·h/mL
same,Tmax,"[1]; 400 mg, 400 mg BID oral monotherapy (Part 1A), C1D1 post first dose, median, read-out: Tmax",2.1 h
same,half-life,"[1]; 400 mg, 400 mg BID oral monotherapy (Part 1A), C1D15, n = 2",6.6 h
same,AUC,"[1]; 400 mg, 400 mg BID oral monotherapy (Part 1A), C1D15, geometric mean, read-out: AUCtau",8000 ng·h/mL
same,Cmax,"[1]; 400 mg, 400 mg BID oral monotherapy (Part 1A), C1D15 post multiple doses, geometric mean",949 ng/mL
same,Tmax,"[1]; 400 mg, 400 mg BID oral monotherapy (Part 1A), C1D15 post multiple doses, median, read-out: Tmax",1 h
same,Cmax,"[1]; 500 mg, 500 mg BID oral monotherapy (Part 1A), C1D1 post first dose, geometric mean",637 ng/mL
same,AUC,"[1]; 500 mg, 500 mg BID oral monotherapy (Part 1A), C1D1 post first dose, geometric mean, read-out: AUC12",4170 ng·h/mL
same,Tmax,"[1]; 500 mg, 500 mg BID oral monotherapy (Part 1A), C1D1 post first dose, median, read-out: Tmax",1.9 h
same,AUC,"[1]; 500 mg, 500 mg BID oral monotherapy (Part 1A), C1D15, n = 1, read-out: AUCtau",12500 ng·h/mL
same,Cmax,"[1]; 500 mg, 500 mg BID oral monotherapy (Part 1A), C1D15 post multiple doses, geometric mean",1760 ng/mL
same,Tmax,"[1]; 500 mg, 500 mg BID oral monotherapy (Part 1A), C1D15 post multiple doses, median, read-out: Tmax",4 h
same,Tmax,"[1]; following oral dose administration, across cohorts (100 to 500 mg BID), read-out: median Tmax values",1 to 4 h
same,concentration at 15 day,"[1]; 100 mg BID oral monotherapy (Part 1A), C1D15, geometric mean, read-out: Cmin",231 ng/mL
same,SGI,[2]; 100 nM single agent,27%
same,SGI,[2]; 300 nM single agent,38; 38%
same,SGI,[2]; 1000 nM single agent,53%
